The data set relates to NNK-induced lung preneoplasias and tumors. The experiment in a line: NNK-induced lung tumor model for chemoprevention, second experiment. It is filed as in vivo, mice. The procedure: To confirm these findings, in a second experiment, in which 24 mg NNK was given (3 mg by ip injection, twice a wk, ×4 wks,), this was followed by one week rest and then immediate treatment with 5 mg/kg CS3D or CS3M, 3 daily injections per week, for 8 weeks. Then 1 week, 8 weeks, or 20 weeks after the end of the treatment course ([…], 21, and 33 weeks after beginning the NNK exposure), necropsy was performed. […] Lung tumors were evaluated by inspecting formalin-fixed lungs visually and by histology after H & E staining. […] Tumor burden (detected by neoplastic growths [adenomas] observed in lung sections) was also assessed at the week 1 timepoint after treatment. Consistent with reduction in preneoplasia, we observed a decrease in the average number of tumors (a 60% reduction in tumors in the CS3D-treated animal) (FIG. 14A).
The chemopreventive effect of CS3D compared to CS3M on lung tumor development was studied in an NNK-induced immunocompetent lung tumor model using the tobacco carcinogen, 4-(methylnitrosamino)-1-(3-pyridyl)-1-butanone, CAS Reg. No. 64091-91-4 (NNK) in mice. The advantages of this model are: NNK is an inducer of KRAS mutations, it is known to induce lung cancers in mice and humans, and the model is immunocompetent. In addition, this is a useful model for studying chemoprevention after exposure to a carcinogenic agent (Hecht S S, et al, Cancer Res. (1980) 40(2):298-302).
After four weeks of NNK exposure, mice are then dosed IV 2 times per week with CS3D or CS3M (5 mg/kg) for eight weeks. The mice are sacrificed after at one week, 8 weeks, and 20 weeks after the end of oligonucleotide dosing to examine lungs. Lungs are formalin-inflated and surface tumors are enumerated visually under a dissecting microscope. The area of each tumor is measured with a analysis tool built in the imaging software LAS v4.7 (Leica). Lungs are also sectioned and examined histologically by hematoxylin and eosin staining for counting the preneoplasia and tumors.

Where “and” joins values, the source holds several entries; their conditions need not be identical. Equal values may be shown once. Entries after “also recorded” stand apart in the source; their conditions may differ.

On to “CS3D (DNA GATTTACGGGAAATGCSCATTTCCC; cyclic decoy with two hexaethylene glycol linkers, further chemistry not given here)”, for which, under “5 mg/kg for 8 weeks”, the “toxicity (body weight, behavior, liver and spleen)” value is on record as “no body weight changes were observed; also recorded: no toxicity observed”. Also, under “8 weeks after treatment ended, vs CS3M”, the “higher count of preneoplasia” value is reported as 43%. Moreover, for the setting “8 weeks post-treatment, vs CS3M”, the “lower number of adenomas” value is recorded as 52%. The “reduction in average number of tumors per animal” value (20 weeks after end of treatment, vs CS3M) was “approximately 40% and 42%”. Moreover, the lower tumor size (20 weeks post-treatment, vs CS3M) was 49.8% and 50%. Under “week 1 after 8 week treatment, 5 mg/kg, vs CS3M”, the “fewer preneoplasias on average per animal” value is recorded as “approximately 25%”. Moreover, for the setting “week 1 after 8 week treatment, vs CS3M”, the “reduction in average number of tumors” value came out at 60%.

The values above are taken from patent US11932850B2, “Cancer chemoprevention with STAT3 blockers” (Jill M. Siegfried, LLC, priority 2018, dated 2024).
